# Laboratory results taken from US5622944A, “Testosterone prodrugs for improved drug delivery” (Affymax Technologies N.V., priority 1995, dated 1997).
# Counter-ions that a name gives are not always drawn.
# How the values were obtained:
# in vitro [1] = format: cell-based, human; conditions: human, dermal fibroblasts, MTT; for CC50 at 2 h: IC50 2 h (cytotoxicity), 2 h incubation; for CC50 at 16 h: IC50 16 h (cytotoxicity), 16 h incubation
# Procedure: As discussed above, the chemical modifier, when present in the subject in its free or released form, and in appropriately administered amounts, should preferably be non-toxic. Additionally, any further in vivo degradation products of the chemical modifier should be non-toxic, as well. Table 2 provides in vitro relative cytotoxicity data for a number of testosterone/chemical modifier complexes, prepared in accordance with the invention. The cytotoxicity assessment was carried out by examining the viability of human dermal fibroblasts in the presence of a number of testosterone/chemical modifier complexes in accordance with the present invention. Details of the experimental protocol are summarized in Example 27.
# The viability of human dermal fibroblasts in the presence of the 17-hydroxy sterol/chemical modifier compounds was assayed using MTT (3-[4,5-dimethylthiazol-2-yl]-2,5-diphenyltetrazolium bromide) reduction to formazan by mitochondrial enzymes as an indicator of cytotoxicity (Swisher, et al.). Confluent fibroblast cells were incubated for 2 or 16 hours in the presence of increasing concentrations of drug complex. At the end of the incubation period, medium was replaced for 4 hours by medium containing the tetrazolium salt, MTT. Metabolism of MTT to a blue formazan was quantitated by spectrophotometry at 540 nm.
# [2] = Water solubility (H2O sol); conditions: for solubility: H2O sol
# [3] = format: in vitro ADME, mouse; conditions: murine skin, active cells (ETm), 10 mM donor, 100 uA/cm^2, 6 h, 32° C.
# Procedure: In vitro electrotransport of testosterone/chemical modifier complexes across hairless mouse skin was evaluated as described in Example 28. The experiments were conducted using modified Valia-Chien cells having 1.0 ml donor and 2.5 ml receptor cells. Anodic transport was carried out using a silver wire-based salt bridge in the donor compartment and a silver chloride cathode in the receptor. Cathodic transport was effected by reversing the electrode configuration. The cells were connected in series and a constant current and temperature were supplied to each cell.
# After a predetermined period of time (6 h), aliquots were removed from the receiver phase for immediate analysis by HPLC to determine cumulative flux.
# The electrotransport of testosterone/chemical modifier complexes was achieved using modified Valia-Chien cells (1.0 ml donor and 2.5 ml receptor cells). Full thickness, hairless mouse skin (Charles River Labs, Wilmington, Mass.) was soaked for one hour in phosphate buffered saline (PBS, pH=7.4) before placing between each compartment (dermal side of skin facing toward receptor). One passive (P1:data) and two or more (ETm :data) active cells were used to screen each compound.
# A 10 mM (1 ml) aqueous solution of testosterone drug/prodrug was placed in the donor (unstirred) compartment and the receptor (stirred) was filled with 2.5 ml of PBS. In order to check for egress due to e.g. damaged skin, a zero hour sample of receptor ([…]) was taken one half hour after the drug solution was placed in the donor compartment. Replacement fluid of equal sample volume was added to the receptor compartment immediately after samples were taken.
# Anodic electrotransport was achieved using a silver wire (immersed in a polyvinylalcohol-based salt bridge to minimize junction potential) in the donor compartment and a AgCl cathode in the receptor. […] The electrotransport cells were connected in series and constant current (100 uA/cm^2, […] for a skin area of 0.64 cm^2) and temperature (32° C.) were supplied to each cell. After six hours of active/passive transport, aliquots (200 ul) of the receptor were sampled and immediately analyzed by HPLC.
# A standard plot of peak area and concentration for each compound was constructed using HPLC. The peak areas of the samples were determined and the concentrations calculated using the standard data. Cumulative flux was calculated using Quickbasic and reported in nmol/cm^2 /hr.
# in vitro [4] = format: in vitro ADME; conditions: 37° C.; for half-life: human, serum
# Procedure: The hydrolytic activity of the sterol prodrug may be evaluated by studies of the chemical or enzymatic conversion of the prodrug to the unmodified parent compound, as described in Example 26.
# Generally, the sterol/chemical modifier complex is dissolved in a minimum amount of a suitable solvent, such as ethanol, and the resulting solution is added to a sample of human serum. Following incubation, aliquots are then removed at various time points and analyzed to determine the extent of hydrolysis. Table I herein lists the representative serum half-lives of a number of testosterone prodrugs according to the present invention.
# The rates of conversion are readily determined, for example by spectrophotometric methods or by gas-liquid or high performance liquid chromatography. Half-lives and other kinetic parameters may then be calculated using standard techniques.
# Determination of Testosterone Prodrug Hydrolysis in Serum
# Stock solutions (6 mM) of the testosterone prodrugs were prepared in ethanol (dissolution was accomplished by vortexing, sonication, or warming at 37° C., as needed). If required for dissolution, one drop of a co-solvent such as dimethylsulfoxide, dimethylformamide or methanol was added. (Acetonitrile is undesirable because it deactivates the serum enzymes).
# HPLC separation methods were established for each study by dilution of the above stock solutions (6 μl) in acetonitrile (1 ml) to form 36 μM solutions. Samples (10 μl) were injected onto a Nucleosil 5C8 column (250×4 mm ID) fitted with an additional guard column (11×4 mm ID) and eluted with a mobile phase of approximately 65% HPLC grade water and 35% trifluoroacetic acid in acetonitrile (0.1% TFA in acetonitrile). Exact proportions of the mobile phase eluents were adjusted in each case to give optimum separation and run times.
# Freshly defrosted human serum (3 ml, Sigma) was warmed at 37° C. for five minutes and then the testosterone prodrug stock solution (60 μl) was added with vortexing. […] The aliquots were added to 800 μl of 2% zinc sulfate solution in a 1.5 ml disposable microcentrifuge tube, vortexed immediately and centrifuged at 14,000 RPM for 3 minutes. The supernatants (10 μl) were injected onto the HPLC and peak areas used to determine the percent of parent drug formed or percent of prodrug remaining. Serum blanks were prepared similarly by addition of serum to the zinc sulfate solution, followed by centrifugation. Initial (time=0) samples were prepared by adding serum to the zinc sulfate solution, followed by addition of the complex and separation by centrifugation. The time=0 samples, as well as the original stock solutions, were also used to assess the stability of the complex in the absence of enzyme. Half-lives were determined using the following equation : […]
# and plotting time (x ordinate) versus the natural logarithm of percent remaining prodrug (y ordinate) to obtain the slope (m) and the y intercept (b).
# [5] = footnote 1: prodrug remaining, no testosterone formed
SMILES,CC50 at 2 h (in vitro [1]) [µM],CC50 at 16 h (in vitro [1]) [µM],Degradation (Degradation (%/d)) [%/d],"Flux, active electrotransport (ET) [3] [nmol/cm^2 /hr]",solubility [2] [mg/mL],half-life (in vitro [4]; HPLC) [h],also measured
"C[C@]12CC[C@H]3[C@@H](CCC4=CC(=O)CC[C@@]43C)[C@@H]1CC[C@@H]2O [Code 1.0, 17β-hydroxyandrost-4-en-3-one, reference compound]",> 1000,423,0,–,–,–,H2O sol [2]: 0.0 mg/mL
"CCCCCCCCCCCCCCCC(=O)O[C@H](CC(=O)O[C@H]1CC[C@H]2[C@@H]3CCC4=CC(=O)CC[C@]4(C)[C@H]3CC[C@]12C)C[N+](C)(C)C [Code 1.1, testosterone-17β-(O-palmitoyl-L-carnitinate), chloride salt]",< 10,< 10,0,0,26,–,–
CC(=O)OC(CC(=O)O[C@H]1CC[C@H]2[C@@H]3CCC4=CC(=O)CC[C@]4(C)[C@H]3CC[C@]12C)C[N+](C)(C)C (stereo partly shown) [Code 1.2],91.6,34.4,0,7.3 ± 5.8,22,96,–
C[C@]12CC[C@H]3[C@@H](CCC4=CC(=O)CC[C@@]43C)[C@@H]1CC[C@@H]2OC(=O)OCOC(=O)CNC(=O)OCOC(=O)CCCCC[N+](C)(C)C [Code 1.8],–,–,–,–,–,0.0667,–
"COC(=O)[C@H](COC(=O)O[C@H]1CC[C@H]2[C@@H]3CCC4=CC(=O)CC[C@]4(C)[C@H]3CC[C@]12C)[N+](C)(C)C [Code 1.9, testosterone-17β-(N,N,N-trimethyl-L-serine methyl ester) carbonate, tetrafluoroborate salt]",–,–,–,–,–,~0.00125,–
"COC(=O)[C@H](COC(=O)O[C@H]1CC[C@H]2[C@@H]3CCC4=CC(=O)CC[C@]4(C)[C@H]3CC[C@]12C)[N+](C)(C)C [Code 2.0, testosterone-17β-(N,N,N-trimethyl-L-serine methyl ester) carbonate, bromide salt]",–,–,–,–,–,–,"Serum half-life (in vitro [4]; human serum, HPLC): 5 s"
"C[C@]12CC[C@H]3[C@@H](CCC4=CC(=O)CC[C@@]43C)[C@@H]1CC[C@@H]2OC(=O)OCOC(=O)CC[N+](C)(C)C [Code 2.1, testosterone-17β-(N,N,N-trimethyl-β-alaninyloxymethyl)carbonate,iodide salt]",–,–,–,–,–,0.0106,–
"C[C@]12CC[C@H]3[C@@H](CCC4=CC(=O)CC[C@@]43C)[C@@H]1CC[C@@H]2OC(=O)C[N+](C)(C)C [Code 2.2, testosterone-17β-betainoyl ester, bromide salt]",2300,650,0,7.9 ± 4.1,10,14,–
C[C@]12CC[C@H]3[C@@H](CCC4=CC(=O)CC[C@@]43C)[C@@H]1CC[C@@H]2OC(=O)CCC[N+](C)(C)C [Code 2.3],653,172,0,2.0 ± 0.8,20,–,half-life (in vitro [4]; [5]): ~15 h
"C[C@]12CC[C@H]3[C@@H](CCC4=CC(=O)CC[C@@]43C)[C@@H]1CC[C@@H]2OC(=O)c1cccnc1 [Code 2.7, Testosterone-17β-nicotinate]",> 1000,> 1000,–,–,–,~840,H2O sol [2]: 0.0 mg/mL
CN(C)CCCC(=O)O[C@H]1CC[C@H]2[C@@H]3CCC4=CC(=O)CC[C@]4(C)[C@H]3CC[C@]12C [Code 3.0],–,–,–,–,–,–,"half-life (in vitro [4]; footnote 2: prodrug remaining, ~50% testosterone and ~50% unknown formed): 106 h"
"CN(C)CCCC(=O)O[C@H]1CC[C@H]2[C@@H]3CCC4=CC(=O)CC[C@]4(C)[C@H]3CC[C@]12C [Code 3.1, testosterone-17β-[4-N,N-dimethylaminobutyrate], hydrochloride salt]",255,145,0,0.7 ± 0.2,22,–,–
"CN(C)CCc1ccc(OC(=O)O[C@H]2CC[C@H]3[C@@H]4CCC5=CC(=O)CC[C@]5(C)[C@H]4CC[C@]23C)cc1 [Code 3.3, testosterone-17β-hordenine carbonate]",–,–,–,–,–,8.2,–
COC(=O)[C@H](COC(=O)O[C@H]1CC[C@H]2[C@@H]3CCC4=CC(=O)CC[C@]4(C)[C@H]3CC[C@]12C)N(C)C [Code 3.5],–,–,–,–,–,0.783,–
"C[C@]12CC[C@H]3[C@@H](CCC4=CC(=O)CC[C@@]43C)[C@@H]1CC[C@@H]2OC(=O)c1ccccn1 [Code 3.9, testosterone-17β-picolinate, hydrochloride salt]",–,–,–,–,–,12.2,–
C[n+]1ccccc1C(=O)O[C@H]1CC[C@H]2[C@@H]3CCC4=CC(=O)CC[C@]4(C)[C@H]3CC[C@]12C [Code 4.0],330,41.1,–,–,0.9,–,half-life (in vitro [4]; HSO4^- salt): 1.08 h; half-life (in vitro [4]; iodide (I--) salt): 1.17 h
"C[C@]12CC[C@H]3[C@@H](CCC4=CC(=O)CC[C@@]43C)[C@@H]1CC[C@@H]2OC(=O)CCC(=O)NCCS(=O)(=O)O [Code 4.2, testosterone-17β-[taurinesuccinamide ester], triethvlammonium salt]",–,–,–,2.8 ± 3.7,–,24,–
"C[C@]12CC[C@H]3[C@@H](CC=C4C=C(OC(=O)CCC[N+](C)(C)C)CC[C@@]43C)[C@@H]1CC[C@@H]2OC(=O)CCC[N+](C)(C)C [Code 4.3, testosterone-3-enol, 17β-ol bis[4-(N,N,N-trimethylammonio)butyrate], dibromide salt]",–,–,–,1.0 ± 0.6,–,–,"half-life (in vitro [4]; footnote 3: prodrug remaining, 60% [2.3] formed, no other products seen): 7.8 h"
"C[C@]12CC[C@H]3[C@@H](CC=C4C=C(OC(=O)CC[N+](C)(C)C)CC[C@@]43C)[C@@H]1CC[C@@H]2OC(=O)OCC[N+](C)(C)C [Code 4.4, testosterone-3-enol, 17β-ol 3-(N,N,N-trimethyl-β-alanine ester) 17-(choline carbonate), dibromide salt]",–,–,–,0.2 ± 0.0,–,–,half-life (in vitro [4]; [5]): 0.0383 h
